Here are results for one molecule from patent US8551963B2, “Imidazolothiazole compounds and methods of use thereof” (Ambit Biosciences Corporation, priority 2008, dated 2013).

“And” between values parts separate entries of the source, which are not always exact repeats. Equal values may be shown once. Bounds are passed on as bounds.

The target in data set [1] is T1, CYP3A4 (Homo sapiens (Human), UniProt P08684). The data set is described as follows: Cyp enzyme inhibition assay in human liver microsomes, CYP3A4. In kind it is in vitro ADME. To be noted: CYP3A4, substrate testosterone. As to the method: (§1) The ability of the compound I-1 to inhibit human metabolizing enzymes CYP3A4, CYP2C9, […], CYP2C19 and CYP1A2, was assessed using those enzymes found collectively in human liver microsomes. The test compound I-1 was prepared as a solution in DMSO or acetonitrile and plated in duplicate rows of a 96-well plate (Nunc) for a final assay concentration of 40 μM in 0.2% DMSO (or 2% acetonitrile) in the first column and serially diluted two-fold going down the row. A known selective inhibitor of a given CYP enzyme listed in Table 8 was selected as the appropriate positive control. For each CYP enzyme inhibition assay, an appropriate enzyme-substrate mixture was prepared to afford a final assay concentration of 75 mM KPO4/pH 7.4, 6.5 mM MgCl2, 0.25 mg/mL pooled male and female human liver microsome (CellzDirect lot HMMC-PL020) with the amounts of the appropriate substrate for each CYP enzyme assay given in Table 8. The enzyme-substrate mixture was added to columns 1 through 10 and column 11 served as a negative control with enzyme solution lacking substrate. A solution of NADPH (Calbiochem) was then added to all rows except for one where NADPH would be added after the incubation period, in order to detect NADPH-independent non-CYP-mediated metabolism. The plate was briefly vortexed and left to shake in a 37° C. water bath for 20 minutes. […]
T1 sequence (P08684 whole entry): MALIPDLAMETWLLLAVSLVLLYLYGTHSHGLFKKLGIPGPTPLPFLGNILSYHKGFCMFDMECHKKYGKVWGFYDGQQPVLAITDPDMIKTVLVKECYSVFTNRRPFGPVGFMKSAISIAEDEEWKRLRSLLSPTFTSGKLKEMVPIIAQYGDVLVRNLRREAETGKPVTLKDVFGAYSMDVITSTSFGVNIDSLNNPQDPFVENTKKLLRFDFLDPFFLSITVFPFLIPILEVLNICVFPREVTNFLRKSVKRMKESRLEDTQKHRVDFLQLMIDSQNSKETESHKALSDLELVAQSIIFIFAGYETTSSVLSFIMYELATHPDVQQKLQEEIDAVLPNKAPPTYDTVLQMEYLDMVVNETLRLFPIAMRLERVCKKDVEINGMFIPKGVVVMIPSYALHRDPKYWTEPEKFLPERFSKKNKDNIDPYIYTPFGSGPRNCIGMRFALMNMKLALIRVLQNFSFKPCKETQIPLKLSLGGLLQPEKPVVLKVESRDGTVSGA
For orientation: Liver microsomes are vesicles of endoplasmic reticulum, rich in cytochrome P450 enzymes.

The target in a further data set is CYP1A2 (Homo sapiens (Human), UniProt P05177). Kind of data set: Cyp enzyme inhibition assay in human liver microsomes, CYP1A2. It is filed as in vitro ADME. To be noted: CYP1A2, substrate phenacetin. As to the method:
as §1

In the next data set the test system is RS4;11 cells. Kind of data set: RS4;11 cellular proliferation assay (Cell Titer Blue). As to conditions: Homo sapiens, RS4-11, 48 h, read-out: EC50 (50% inhibition of cellular proliferation). In kind it is cell-based. A general note: Alamar Blue is a resazurin reagent that responds to reducing activity.
Data set [2] deals with T1, CYP3A4. Kind of data set: Time dependant inhibition in human liver microsomes, CYP3A4. In kind it is in vitro ADME. As to conditions: CYP3A4, 10 μM, pre-incubation 0-30 minutes. As for the experimental part: For each CYP isoform tested, 10 μM Compound I-1 was pre-incubated with pooled male and female human liver microsomes with NADPH in a 37° C. shaking water bath in duplicate to afford a final pre-incubation assay concentration of 100 mM KPO4/pH 7.4, 10 mM MgCl2, 2 mg/mL of human liver microsome (CellzDirect lot HLM HMMC-PL020) and 1 mM NADPH (Calbiochem). At each pre-incubation time point (0, 5, 10, 20, and 30 minutes) 20 μL was removed and placed in a second 96 well plate on ice. After all pre-incubation time points were collected 180 uL of additional human microsome liver preparation containing the appropriate CYP specific substrate at its Km concentration listed in Table 11 plus NADPH, was added to each time point. The samples were incubated for an additional 10 minutes in a 37° C. shaking water bath and then quenched with 75:25 acetonitrile (ACN):water containing the appropriate internal standards listed in Table 11. After brief mixing, the plate was centrifuged and the supernatant removed for analysis by LC/MS/MS (API 4000 Qtrap) for the formation of 6-hydroxy-testosterone (CYP3A4), 4-hydroxy-mephenyloin (CYP2C19), or 6-hydroxy-taxol (CYP2C8). […] Consistent with Example 5, Compound I-1 did inhibit CYP2C8-mediated metabolite formation at 10 μM, but not in a time dependent manner.

A further data set concerns MDR1-MDCK cells. Kind of data set: Bidirectional MDR1-MDCK permeability, Compound I-1 as a substrate. To be noted: 5 μM, Surf.
In the next data set the test system is P-glycoprotein (MDR1). Described as above. As to conditions: dog, Surf.
The next data set concerns the target P-Glycoprotein (Homo sapiens (Human), UniProt P08183). Kind of data set: Digoxin bidirectional MDR1-MDCK permeability, Compound I-1 as an inhibitor. As to conditions: Surf.
The mark [3] stands for this setting: Table 17, Digoxin 1 μM + Compound I-1 5.0 μM.
The mark [4] stands for this setting: preliminary experiment, Digoxin 1 μM + Compound I-1 0.5 μM.
Where [5] appears, read: preliminary experiment, Digoxin 1 μM + Compound I-1 1.5 μM.
Setting [6] is: preliminary experiment, Digoxin 1 μM + Compound I-1 5.0 μM.

Sequence of P-Glycoprotein (P08183 whole entry): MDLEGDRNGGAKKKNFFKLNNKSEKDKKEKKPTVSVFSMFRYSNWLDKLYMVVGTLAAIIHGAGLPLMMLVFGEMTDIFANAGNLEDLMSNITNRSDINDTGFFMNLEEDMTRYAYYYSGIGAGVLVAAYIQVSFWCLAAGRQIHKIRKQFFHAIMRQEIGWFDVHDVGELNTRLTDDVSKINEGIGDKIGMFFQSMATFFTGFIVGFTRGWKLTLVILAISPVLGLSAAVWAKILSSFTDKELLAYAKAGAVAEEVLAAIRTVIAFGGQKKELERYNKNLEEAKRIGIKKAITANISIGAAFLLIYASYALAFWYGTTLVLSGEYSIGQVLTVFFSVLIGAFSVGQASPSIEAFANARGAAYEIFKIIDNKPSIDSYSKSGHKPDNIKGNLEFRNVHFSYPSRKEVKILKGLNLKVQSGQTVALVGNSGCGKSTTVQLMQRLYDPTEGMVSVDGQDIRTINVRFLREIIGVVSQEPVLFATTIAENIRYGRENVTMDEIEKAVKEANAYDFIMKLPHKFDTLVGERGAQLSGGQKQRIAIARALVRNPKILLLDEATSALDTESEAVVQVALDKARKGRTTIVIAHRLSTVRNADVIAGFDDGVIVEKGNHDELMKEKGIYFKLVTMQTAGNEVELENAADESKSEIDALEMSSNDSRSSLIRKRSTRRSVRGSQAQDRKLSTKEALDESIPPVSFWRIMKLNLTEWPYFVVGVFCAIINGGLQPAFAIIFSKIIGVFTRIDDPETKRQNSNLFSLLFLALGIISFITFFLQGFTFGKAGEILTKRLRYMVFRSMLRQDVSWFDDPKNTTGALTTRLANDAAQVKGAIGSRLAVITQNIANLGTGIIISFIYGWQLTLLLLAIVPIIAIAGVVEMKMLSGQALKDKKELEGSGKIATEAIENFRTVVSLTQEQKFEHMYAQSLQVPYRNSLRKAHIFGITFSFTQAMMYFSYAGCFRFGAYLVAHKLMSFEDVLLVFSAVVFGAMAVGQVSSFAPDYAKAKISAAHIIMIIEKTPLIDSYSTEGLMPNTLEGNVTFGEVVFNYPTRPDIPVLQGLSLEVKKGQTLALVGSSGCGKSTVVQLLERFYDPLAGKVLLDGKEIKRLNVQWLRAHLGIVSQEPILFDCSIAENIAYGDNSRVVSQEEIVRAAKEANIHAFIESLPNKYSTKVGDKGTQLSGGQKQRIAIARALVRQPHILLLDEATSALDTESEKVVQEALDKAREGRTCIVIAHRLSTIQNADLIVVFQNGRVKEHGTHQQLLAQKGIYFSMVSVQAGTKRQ
Sequence of CYP1A2 (P05177 whole entry): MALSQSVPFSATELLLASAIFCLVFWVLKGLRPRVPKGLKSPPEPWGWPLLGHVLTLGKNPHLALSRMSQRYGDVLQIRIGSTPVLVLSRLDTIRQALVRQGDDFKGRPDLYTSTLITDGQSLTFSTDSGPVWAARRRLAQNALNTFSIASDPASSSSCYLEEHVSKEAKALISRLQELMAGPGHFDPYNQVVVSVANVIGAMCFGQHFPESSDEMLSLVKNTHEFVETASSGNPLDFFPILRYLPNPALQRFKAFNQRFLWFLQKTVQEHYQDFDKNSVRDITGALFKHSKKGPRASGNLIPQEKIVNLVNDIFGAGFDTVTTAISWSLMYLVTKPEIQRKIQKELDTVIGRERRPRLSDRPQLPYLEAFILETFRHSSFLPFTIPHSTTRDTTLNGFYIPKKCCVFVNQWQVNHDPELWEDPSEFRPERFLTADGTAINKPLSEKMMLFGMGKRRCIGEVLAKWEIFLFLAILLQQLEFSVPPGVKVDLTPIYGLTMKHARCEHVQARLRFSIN
Procedure for MDR1-MDCK cells: (§2) MDR1-MDCK cells were grown to confluence for 5-10 days on 1 μm filters in 24-well plate. Aliquots of DMSO solute stocks were diluted into Hank's balanced salt solution (HBSS) pH 7.4 containing 25 mM HEPES+−0.05% PS80 to give 0.5, 1.5 or 5.0 μM solute concentrations. Final concentrations of DMSO in the assayed samples ranged from 0.005% for the 0.5 μM concentration to 0.05% for the 5 μM concentration. […] The solute containing donor solutions were transferred to either the apical or basolateral chamber of the permeability diffusion apparatus. Receiver solutions consisted of Hank's balanced salt solution (HBSS) pH 7.4 containing 25 mM HEPES+0.05% PS80. The entire receiver solution was removed at 20 minute intervals and manually replaced with fresh buffer. The concentration of transported solute during each sampling interval was determined by HPLC/UV/MS. The standard curve was produced from serial dilutions of the dosing solution. D0 was a 50 μl aliquot of dosing solution from the donor well diluted with 450 μl of HBSS. The standard curve was produced from serial dilutions of the dosing solution (1:10, 1:25, 1:50, 1:100, 1:500 and 1:1000). Permeability coefficients were calculated for each sampling interval using the following equation:
(§3) [formula] Where VD=volume of donor (0.4 ml for Ap_Bl flux and 1.0 ml for Bl_Ap flux), A=surface area of the filter on which the monolayer was grown (0.31 cm2), MD(0)=mass in the donor at the beginning of the ith sampling interval, MR (t)=mass in the receiver at time t, and _t is the experimental interval (20 minutes). The apparent permeability, Papp, is then calculated as the average:
(§4) The average and standard deviation from the intervals is reported. Mass balance in the system was ascertained by comparing the sum of total transported solute and remaining donor solute with the starting mass of solute and is expressed as a percentage of donor solute at time zero. […] At the termination of the experiment, the cell monolayers are stored in the cold until the data is analyzed. After analysis, if mass balance falls below 70% in a given experiment, those monolayers are retrieved and extracted with acetonitrile. After separation of cellular debris, the extract is analyzed for recoverable solute of interest. […] All determinations were performed in duplicate.
Procedure for P-glycoprotein (MDR1): as §2, §3, §4
Procedure for RS4;11 cells: Cells were cultured overnight in low serum media with 0.5% FBS. The following day, cells were seeded on to a 96-well plate at 40,000 cells per well at a volume of 100 μL per well.
CTB reagent was thawed in a 37° C. water bath. 40 μL of CTB reagent was added to the plate containing the cells, and the cells were incubated with the reagent at 37° C. in 5% CO2 for 3 hours. The absorbance was measured at 560 nm (excitation)/590 nm (emission) using Spectramax Plus 384 Absorbance Microplate Reader by Molecular Devices.

`CC(C)(CO)c1cc(NC(=O)Nc2ccc(-c3cn4c(n3)sc3cc(OCCN5CCOCC5)ccc34)cc2)no1` [Compound I-1, 1-[5-(2-hydroxy-1,1-dimethyl-ethyl)-isoxazol-3-yl]-3-{4-[7-(2-morpholin-4-yl-ethoxy)-benzo[d]imidazo[2,1-b]thiazol-2-yl]-phenyl}-urea]: the IC50 at CYP3A4 [1] and at CYP1A2 was > 40 µM each time. Moreover, the EC50 in the data set on RS4;11 cells was 0.002 µM. Also, the Time dependant inhibition result on CYP3A4 [2] is “not a time dependant inhibitor”. For the same molecule, in the data set on MDR1-MDCK cells, the “Assymetry Index” value is on record as 1.7. The same molecule gave a PeAP→BL in the data set with MDR1-MDCK cells of 2.81 ×10⁻⁶ cm/s. In the data set on MDR1-MDCK cells, the PeBL→AP is 6.31 ×10⁻⁶ cm/s and 4.67 ×10⁻⁶ cm/s. The efflux ratio (commonly the permeability from basolateral to apical divided by that in the opposite direction, in the common usage) at 5 μM in the data set on P-glycoprotein (MDR1) (MDCK-MDR1, pH 7.4, Assymetry Index) was found to be 1.2. In addition, the Papp A→B (commonly the apparent permeability from the apical to the basolateral side of a cell layer) at 5 μM in the data set with P-glycoprotein (MDR1) (MDCK-MDR1, pH 7.4, PeAP→BL) turned out to be 5.1 ×10⁻⁶ cm/s. Further, the “Digoxin Mass Bal (AP→BL)” value on P-Glycoprotein (setting [3]) stood at 104%; at P-Glycoprotein (setting [4]), 98%; at P-Glycoprotein (setting [5]) it was 98%; at P-Glycoprotein (setting [6]) it was 93%. For the same molecule, the “Digoxin Mass Bal (BL→AP)” value at P-Glycoprotein (setting [3]) turned out to be 98%; on P-Glycoprotein (setting [4]), 91%; at P-Glycoprotein (setting [5]), 94%; at P-Glycoprotein (setting [6]), 99%.
